Measurements as given in ChEMBL document CHEMBL5291721, “A preclinical secondary pharmacology resource illuminates target-adverse drug reaction associations of marketed drugs” (Nat Commun, 2023).

Key:
[1] = target: T1, Alpha-1A adrenergic receptor (Homo sapiens, UniProt P35348)
T1 sequence (P35348 whole entry): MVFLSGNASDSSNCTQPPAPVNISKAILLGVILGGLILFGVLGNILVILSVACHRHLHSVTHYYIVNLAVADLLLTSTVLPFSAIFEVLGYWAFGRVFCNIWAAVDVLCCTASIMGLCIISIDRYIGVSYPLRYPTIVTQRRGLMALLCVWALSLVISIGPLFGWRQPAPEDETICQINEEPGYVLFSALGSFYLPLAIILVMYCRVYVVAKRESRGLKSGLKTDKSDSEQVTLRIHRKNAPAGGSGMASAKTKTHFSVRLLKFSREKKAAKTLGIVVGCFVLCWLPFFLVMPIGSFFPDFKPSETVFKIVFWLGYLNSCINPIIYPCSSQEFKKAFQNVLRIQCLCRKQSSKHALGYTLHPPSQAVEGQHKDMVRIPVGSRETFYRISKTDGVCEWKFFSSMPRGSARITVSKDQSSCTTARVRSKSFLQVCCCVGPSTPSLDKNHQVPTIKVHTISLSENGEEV

[2] = target: T2, Corticotropin-releasing factor receptor 1 (Homo sapiens, UniProt P34998)
T2 sequence (P34998 whole entry): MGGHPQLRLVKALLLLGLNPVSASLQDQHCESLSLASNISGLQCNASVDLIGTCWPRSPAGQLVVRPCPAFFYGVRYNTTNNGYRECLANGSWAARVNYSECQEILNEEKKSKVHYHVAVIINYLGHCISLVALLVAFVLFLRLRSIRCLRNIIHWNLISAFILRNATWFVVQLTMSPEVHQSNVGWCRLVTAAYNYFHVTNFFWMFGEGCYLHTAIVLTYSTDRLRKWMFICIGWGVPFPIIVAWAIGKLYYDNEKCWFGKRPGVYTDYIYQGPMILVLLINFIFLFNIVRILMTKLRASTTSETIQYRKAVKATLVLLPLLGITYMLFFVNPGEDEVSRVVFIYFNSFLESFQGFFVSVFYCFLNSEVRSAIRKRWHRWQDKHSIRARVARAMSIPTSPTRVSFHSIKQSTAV

Estrogen receptor = target: T3, Estrogen receptor (Homo sapiens, UniProt P03372)
T3 sequence (P03372 whole entry): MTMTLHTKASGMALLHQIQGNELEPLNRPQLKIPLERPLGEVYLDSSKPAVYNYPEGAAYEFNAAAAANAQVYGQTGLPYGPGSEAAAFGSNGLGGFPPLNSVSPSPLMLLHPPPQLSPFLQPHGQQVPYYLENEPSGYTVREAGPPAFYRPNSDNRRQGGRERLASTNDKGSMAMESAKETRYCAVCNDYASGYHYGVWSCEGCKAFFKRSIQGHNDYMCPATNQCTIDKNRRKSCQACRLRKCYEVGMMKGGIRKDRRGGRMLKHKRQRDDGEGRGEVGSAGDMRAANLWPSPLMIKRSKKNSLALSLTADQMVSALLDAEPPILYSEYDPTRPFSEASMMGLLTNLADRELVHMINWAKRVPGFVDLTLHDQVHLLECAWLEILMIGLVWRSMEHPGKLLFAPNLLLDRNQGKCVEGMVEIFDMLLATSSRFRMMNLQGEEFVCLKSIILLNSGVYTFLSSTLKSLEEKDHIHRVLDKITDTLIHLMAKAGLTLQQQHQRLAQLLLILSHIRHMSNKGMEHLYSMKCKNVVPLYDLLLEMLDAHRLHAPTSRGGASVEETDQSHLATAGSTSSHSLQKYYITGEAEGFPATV

D(4) dopamine receptor = target: T4, D(4) dopamine receptor (Homo sapiens, UniProt P21917)
T4 sequence (P21917 whole entry): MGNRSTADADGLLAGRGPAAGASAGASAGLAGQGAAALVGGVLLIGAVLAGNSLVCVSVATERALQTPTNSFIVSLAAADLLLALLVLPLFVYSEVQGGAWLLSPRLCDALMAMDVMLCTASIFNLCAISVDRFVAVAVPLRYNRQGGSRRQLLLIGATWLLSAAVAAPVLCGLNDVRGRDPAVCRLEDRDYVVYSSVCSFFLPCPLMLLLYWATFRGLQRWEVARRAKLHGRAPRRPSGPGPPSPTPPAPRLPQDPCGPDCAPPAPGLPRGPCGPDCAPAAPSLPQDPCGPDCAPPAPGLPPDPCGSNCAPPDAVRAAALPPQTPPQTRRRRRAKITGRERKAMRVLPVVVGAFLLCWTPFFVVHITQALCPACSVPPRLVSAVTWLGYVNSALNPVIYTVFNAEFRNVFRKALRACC

D(1A) dopamine receptor = D(1A) dopamine receptor (Homo sapiens, UniProt P21728)
Progesterone receptor = target: T5, Progesterone receptor (Homo sapiens, UniProt P06401)
T5 sequence (P06401 whole entry): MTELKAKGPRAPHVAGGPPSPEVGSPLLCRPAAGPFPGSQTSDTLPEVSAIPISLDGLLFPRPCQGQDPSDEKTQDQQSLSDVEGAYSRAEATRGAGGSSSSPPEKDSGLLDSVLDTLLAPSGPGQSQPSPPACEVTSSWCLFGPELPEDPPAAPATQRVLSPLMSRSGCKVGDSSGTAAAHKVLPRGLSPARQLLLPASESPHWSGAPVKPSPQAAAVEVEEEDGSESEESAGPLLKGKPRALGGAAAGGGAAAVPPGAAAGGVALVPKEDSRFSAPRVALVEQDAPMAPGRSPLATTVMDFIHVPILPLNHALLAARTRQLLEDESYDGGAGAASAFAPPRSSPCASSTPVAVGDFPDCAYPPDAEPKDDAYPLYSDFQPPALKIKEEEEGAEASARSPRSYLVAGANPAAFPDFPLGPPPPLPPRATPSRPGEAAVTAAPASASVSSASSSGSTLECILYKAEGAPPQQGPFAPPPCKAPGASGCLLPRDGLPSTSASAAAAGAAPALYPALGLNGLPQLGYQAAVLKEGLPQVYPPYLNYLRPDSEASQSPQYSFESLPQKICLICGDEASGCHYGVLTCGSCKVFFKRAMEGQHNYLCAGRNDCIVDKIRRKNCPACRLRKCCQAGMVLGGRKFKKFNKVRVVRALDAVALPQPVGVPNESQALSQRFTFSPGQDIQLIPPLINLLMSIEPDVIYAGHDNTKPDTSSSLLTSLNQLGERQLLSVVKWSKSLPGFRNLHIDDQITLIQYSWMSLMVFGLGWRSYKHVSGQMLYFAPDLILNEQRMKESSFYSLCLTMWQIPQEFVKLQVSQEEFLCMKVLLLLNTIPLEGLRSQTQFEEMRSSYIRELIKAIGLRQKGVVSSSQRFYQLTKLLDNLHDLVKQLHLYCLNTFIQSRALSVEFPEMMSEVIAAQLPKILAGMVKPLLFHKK

[3] = target: Gamma-aminobutyric acid receptor subunit alpha-1/alpha-2/beta-2/gamma-2 (Homo sapiens, UniProt P14867+P18507+P47869+P47870); assay type: protein-complex assay
Further: assay procedure not described here.

D(1A) dopamine receptor, sequence (P21728 whole entry): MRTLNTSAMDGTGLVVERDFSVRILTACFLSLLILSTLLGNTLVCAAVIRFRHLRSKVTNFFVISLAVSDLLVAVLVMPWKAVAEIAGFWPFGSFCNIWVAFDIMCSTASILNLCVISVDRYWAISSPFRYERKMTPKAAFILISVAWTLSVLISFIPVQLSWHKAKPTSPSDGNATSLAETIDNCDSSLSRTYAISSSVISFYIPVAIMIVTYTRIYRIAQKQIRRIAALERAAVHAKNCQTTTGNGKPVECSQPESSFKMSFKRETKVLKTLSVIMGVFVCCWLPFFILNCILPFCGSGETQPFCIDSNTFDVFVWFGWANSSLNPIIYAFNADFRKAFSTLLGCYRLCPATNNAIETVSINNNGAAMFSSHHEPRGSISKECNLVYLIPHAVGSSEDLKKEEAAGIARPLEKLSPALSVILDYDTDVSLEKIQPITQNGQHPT
Gamma-aminobutyric acid receptor subunit alpha-1/alpha-2/beta-2/gamma-2, sequence (P14867 whole entry): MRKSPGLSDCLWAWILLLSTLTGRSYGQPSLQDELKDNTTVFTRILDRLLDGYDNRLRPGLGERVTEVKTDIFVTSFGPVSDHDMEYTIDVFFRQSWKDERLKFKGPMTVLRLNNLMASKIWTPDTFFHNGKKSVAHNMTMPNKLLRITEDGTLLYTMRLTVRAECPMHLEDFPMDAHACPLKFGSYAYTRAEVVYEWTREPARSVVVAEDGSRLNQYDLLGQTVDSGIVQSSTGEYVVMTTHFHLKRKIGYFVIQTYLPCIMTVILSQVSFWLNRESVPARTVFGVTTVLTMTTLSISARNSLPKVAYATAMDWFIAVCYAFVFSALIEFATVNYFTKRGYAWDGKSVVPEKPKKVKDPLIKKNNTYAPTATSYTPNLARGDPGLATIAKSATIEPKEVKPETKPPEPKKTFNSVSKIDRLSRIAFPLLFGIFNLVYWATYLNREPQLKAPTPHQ
Gamma-aminobutyric acid receptor subunit alpha-1/alpha-2/beta-2/gamma-2, sequence (P47870 whole entry): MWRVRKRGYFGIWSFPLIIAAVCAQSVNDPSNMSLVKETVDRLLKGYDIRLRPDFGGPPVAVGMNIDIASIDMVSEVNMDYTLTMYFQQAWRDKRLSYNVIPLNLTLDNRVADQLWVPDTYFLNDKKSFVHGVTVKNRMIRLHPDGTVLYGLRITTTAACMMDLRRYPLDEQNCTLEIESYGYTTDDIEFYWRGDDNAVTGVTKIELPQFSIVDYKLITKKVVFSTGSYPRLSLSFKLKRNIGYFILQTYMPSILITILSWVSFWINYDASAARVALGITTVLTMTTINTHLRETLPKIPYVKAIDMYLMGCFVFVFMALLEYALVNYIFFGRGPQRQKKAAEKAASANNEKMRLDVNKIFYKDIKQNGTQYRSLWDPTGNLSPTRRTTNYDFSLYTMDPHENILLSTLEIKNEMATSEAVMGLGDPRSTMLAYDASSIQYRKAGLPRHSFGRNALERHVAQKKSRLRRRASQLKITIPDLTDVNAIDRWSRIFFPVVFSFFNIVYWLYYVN
Gamma-aminobutyric acid receptor subunit alpha-1/alpha-2/beta-2/gamma-2, sequence (P18507 whole entry): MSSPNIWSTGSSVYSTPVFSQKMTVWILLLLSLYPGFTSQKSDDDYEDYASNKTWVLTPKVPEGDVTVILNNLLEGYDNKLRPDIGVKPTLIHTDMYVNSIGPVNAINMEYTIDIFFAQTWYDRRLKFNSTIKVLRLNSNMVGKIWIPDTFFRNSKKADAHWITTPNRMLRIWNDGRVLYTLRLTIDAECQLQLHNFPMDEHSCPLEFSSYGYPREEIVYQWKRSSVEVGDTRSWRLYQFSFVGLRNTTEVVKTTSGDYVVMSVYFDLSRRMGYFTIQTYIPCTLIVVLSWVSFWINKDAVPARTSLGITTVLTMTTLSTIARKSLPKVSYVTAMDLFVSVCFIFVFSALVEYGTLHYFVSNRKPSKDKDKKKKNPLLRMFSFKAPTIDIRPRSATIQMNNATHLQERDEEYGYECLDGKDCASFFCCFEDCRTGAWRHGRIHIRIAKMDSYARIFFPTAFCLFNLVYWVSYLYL
Gamma-aminobutyric acid receptor subunit alpha-1/alpha-2/beta-2/gamma-2, sequence (P47869 whole entry): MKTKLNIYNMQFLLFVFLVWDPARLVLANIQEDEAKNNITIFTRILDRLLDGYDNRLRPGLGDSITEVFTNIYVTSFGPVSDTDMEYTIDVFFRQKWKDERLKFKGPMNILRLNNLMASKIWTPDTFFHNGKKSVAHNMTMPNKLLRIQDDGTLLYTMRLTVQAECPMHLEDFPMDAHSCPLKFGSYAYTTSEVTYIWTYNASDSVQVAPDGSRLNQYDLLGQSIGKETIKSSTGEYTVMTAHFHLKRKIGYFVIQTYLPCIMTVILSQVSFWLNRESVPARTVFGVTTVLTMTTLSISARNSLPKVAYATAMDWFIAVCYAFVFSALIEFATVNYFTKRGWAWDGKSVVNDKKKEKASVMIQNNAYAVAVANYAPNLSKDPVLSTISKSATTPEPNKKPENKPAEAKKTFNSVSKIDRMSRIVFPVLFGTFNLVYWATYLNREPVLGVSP

| Structure (SMILES) | AC50 [1] | AC50 (Progesterone receptor) | AC50 [2] | AC50 (Estrogen receptor) | AC50 (D(4) dopamine receptor) | AC50 (D(1A) dopamine receptor) | AC50 [3] |
| --- | --- | --- | --- | --- | --- | --- | --- |
| Cc1onc(-c2ccccc2)c1-c1ccc(S(N)(=O)=O)cc1 [VALDECOXIB] | > 10 µM | > 30 µM | > 30 µM |  | > 10 µM | > 10 µM | > 30 µM |
| CCCC(CCC)C(=O)O [VALPROIC ACID] |  | > 30 µM | > 30 µM | > 30 µM | > 10 µM | > 10 µM |  |
| COc1cc2nc(N3CCN(C(=O)C4CCCO4)CC3)nc(N)c2cc1OC (stereo not given) [TERAZOSIN] |  |  | > 30 µM | > 30 µM | > 10 µM | > 10 µM |  |
| COc1ccccc1OCCNCC(O)COc1cccc2[nH]c3ccccc3c12 (stereo not given) [CARVEDILOL] | 0.0194 µM | > 30 µM | > 30 µM | > 30 µM | 0.0172 µM | 2.28 µM |  |
| CC(C)Cc1ccc(C(C)C(=O)O)cc1 (stereo not given) [IBUPROFEN] | > 10 µM | > 30 µM | > 30 µM | 21.3 µM | > 10 µM | > 10 µM | > 30 µM |
| C=CC[C@@H]1/C=C(\C)C[C@H](C)C[C@H](OC)[C@H]2O[C@@](O)(C(=O)C(=O)N3CCCC[C@H]3C(=O)O[C@H](/C(C)=C/[C@@H]3CC[C@@H](O)[C@H](OC)C3)[C@H](C)[C@@H](O)CC1=O)[C@H](C)C[C@@H]2OC [TACROLIMUS ANHYDROUS] | > 10 µM | > 30 µM | > 30 µM | > 30 µM | > 10 µM | > 10 µM |  |

Continued, in another order:

| AC50 [1] | AC50 (Progesterone receptor) | Structure (SMILES) | AC50 [2] | AC50 (Estrogen receptor) | AC50 (D(4) dopamine receptor) | AC50 (D(1A) dopamine receptor) | AC50 [3] |
| --- | --- | --- | --- | --- | --- | --- | --- |
| 5.1 µM | > 30 µM | Nc1ccc(S(=O)(=O)Nc2nccs2)cc1 [SULFATHIAZOLE] | > 30 µM | > 30 µM | > 10 µM | > 10 µM |  |
| 3.4 µM | > 30 µM | C[C@H]1c2cccc(O)c2C(=O)C2=C(O)[C@]3(O)C(=O)C(C(N)=O)=C(O)[C@@H](N(C)C)[C@@H]3[C@@H](O)[C@@H]21 [DOXYCYCLINE] | > 30 µM |  | > 10 µM | > 10 µM |  |
| 2.33 µM | > 30 µM | CO[C@H]1/C=C/O[C@@]2(C)Oc3c(C)c(O)c4c(O)c(c(/C=N/N5CCN(C)CC5)c(O)c4c3C2=O)NC(=O)/C(C)=C\C=C\[C@H](C)[C@H](O)[C@@H](C)[C@@H](O)[C@@H](C)[C@H](OC(C)=O)[C@@H]1C [RIFAMPIN] | > 30 µM |  | > 10 µM | > 10 µM |  |
| > 10 µM | > 30 µM | CN(C)CCc1c[nH]c2ccc(Cn3cncn3)cc12 [RIZATRIPTAN] | > 30 µM |  | > 10 µM | > 10 µM |  |
